From US20180177805A1, “Intravitreal Lysine Acetylsalicylate As Treatment For Diabetic Retinopathy” (Fundación Para El Fomento De La Investigación Sani taria Y …, priority 2015, published 2018) come the findings set out here.

For one data set, the system named is retina. Further details: species or system Wistar rat. The settings on record: rat, in vivo. The procedure: For the intravitreal injection, the animals were anesthetized with a mixture in a proportion of 1:1 of xylazine hydrochloride (4 mg/kg) and ketamine hydrochloride (10 mg/kg). Under mydriasis with 0.5% tropicamide, the intravitreal injection of the lysine acetylsalicylate solution was carried out under a surgical microscope with a micro injection syringe (Hamilton Co., Reno, Nev.) and a 32 gauge needle at 1 millimeter from the temporal limbus. Only half the diabetic animals were treated with the intravitreal solution, the rest of the animals were left to develop diabetic retinopathy naturally. […] Summary of the organization of the experimental test: • Initially, the animals were evaluated prior to including them in the experimental test to discard those with defects or basic ocular changes. • The inducement of diabetes was carried out in all the animals by means of injecting intraperitoneal streptozotocin. • The blood sugar indices were compared at 24 and 48 hours of the injection to assess whether the inducement had been successful. • Once diabetes was confirmed, the animals were divided into two groups formed by 8 rats each. • Following the diabetic retinopathy model in rats, diabetes was left to develop naturally in both groups over the first 12 weeks. […]

Data set [1] has as its system ICAM-1 endothelial marker. The data set is described as follows: ICAM-1 endothelial cell count by immunohistochemistry in retina sections, streptozotocin diabetic retinopathy model, after intravitreal injection. The conditions noted are these: treated (CASE) diabetic rats. In kind it is in vivo, Wistar rat. An excerpt: 2. […] ICAM-1 is a transmembrane protein present in the endothelial cells and practically specific to them. Its immunohistochemical staining allows the endothelial cells present in the different layers of examined tissues to be quantitatively indicated and assessed and it gives us information concerning the vascularization of the examined tissues and the integrity of the vascular wall.
(§1) Pursuant to approval of the Bioethics Committee for Research of the University of Miguel Hernandez de Elche and based on the international standards for the use of animal experimentation, […] confined male Wistar rat specimens weighing 200 grams were induced to suffer diabetes by means of injecting intraperitoneal streptozotocin (75 mg/kg) in a single dose. The animals were monitored during the whole study continuously in terms of weight, blood sugar, loss of hair and formation of cataracts. All the animals were exposed to the same parameters of light, darkness and availability of water and food.
(§2) For the intravitreal injection, the animals were anesthetized with a mixture in a proportion of 1:1 of xylazine hydrochloride (4 mg/kg) and ketamine hydrochloride (10 mg/kg). Under mydriasis with 0.5% tropicamide, the intravitreal injection of the lysine acetylsalicylate solution was carried out under a surgical microscope with a micro injection syringe (Hamilton Co., Reno, Nev.) and a 32 gauge needle at 1 millimeter from the temporal limbus. Only half the diabetic animals were treated with the intravitreal solution, the rest of the animals were left to develop diabetic retinopathy naturally. The process of intravitreal injection was repeated in the same way, technique and dose in the same animals 4 weeks after the initial treatment. Summary of the organization of the experimental test: • Initially, the animals were evaluated prior to including them in the experimental test to discard those with defects or basic ocular changes. • The inducement of diabetes was carried out in all the animals by means of injecting intraperitoneal streptozotocin. • The blood sugar indices were compared at 24 and 48 hours of the injection to assess whether the inducement had been successful. • Once diabetes was confirmed, the animals were divided into two groups formed by 8 rats each. • Following the diabetic retinopathy model in rats, diabetes was left to develop naturally in both groups over the first 12 weeks.
Laminar sections of the retina of all the animals were carried out, being exposed to the action of 4% formaldehyde preservatives. […] After fixing the different sections of stained tissue, the positively stained molecules and the amount of blood vessels present were counted under an optical microscope (Leica® microsystem) with 10× magnification. […]

The subject of data set [2] is blood vessels of the retina. As to the kind of experiment: Vascular density (blood vessel count per tissue section) in retina, streptozotocin diabetic retinopathy model, after intravitreal injection. The settings on record: for VESSELS count: treated (CASE) diabetic rats. The data set is classed as in vivo, Wistar rat.
Text: 3. Vascular density: the chronic inflammation caused in diabetic retinopathy involves obliteration and death of the blood vessels. […] This scenario is a final stage of the phenomenon known as diabetic microangiopathy. Thus, determining the number of vessels present in each section of tissue can give us information concerning whether or not the medicament is capable of positively or negatively influencing the capillary density of the retina (vessels/portion of tissue).
as §1, §2
(§3) Laminar sections of the retina of all the animals were carried out, being exposed to the action of 4% formaldehyde preservatives. For the marking of the endothelial cells, an anti-ICAM1 monoclonal antibody was used, we also used anti-CD18 monoclonal antibodies for the staining of the leucocytes. After fixing the different sections of stained tissue, the positively stained molecules and the amount of blood vessels present were counted under an optical microscope (Leica® microsystem) with 10× magnification.
For the purposes of assessing significant differences between the different regions of the retina, in all the tissues, the cell and vessel counts corresponding to the central retina (between optical nerve and macular area) and those corresponding to the peripheral retina (outside of the vascular arches) were carried out separately. These counts were specifically carried out on two layers of the retina: the external plexiform layer and the ganglion cell layer. […]

In another data set the test system is CD18 leucocyte marker. The data set is described as follows: CD18 leucocyte count by immunohistochemistry in retina sections, streptozotocin diabetic retinopathy model, after intravitreal injection. In kind it is in vivo, Wistar rat. The settings on record: for CD18 count: treated (CASE) diabetic rats.
Text: 1. CD18 leucocyte marker: the leucocyte is the main effector cell of the inflammatory response of the tissues, something which also occurs in the retina. CD18 is a surface molecule which is expressed in the membranes of the leucocytes activated in tissues where there is inflammation, as is the case with the diabetic retina. Determine its absolute and relative number helps to know whether the injected solution is capable of reducing the presence of leucocytes activated in determined layers of the retina as part of their anti-inflammatory action.
as §1, §2, §3
For the purposes of assessing significant differences between the different regions of the retina, in all the tissues, the cell and vessel counts corresponding to the central retina (between optical nerve and macular area) and those corresponding to the peripheral retina (outside of the vascular arches) were carried out separately. These counts were specifically carried out on two layers of the retina: the external plexiform layer and the ganglion cell layer.
The U Mann-Whitney contrast test was used for independent samples. To contrast the correlation between the variables, the Spearman test was used.

Where [3] appears, read: central retina, external plexiform layer, 25 micrograms intravitreal at weeks 12 and 16, sacrifice week 20.
Setting [4] is: peripheral retina, external plexiform layer.
[5] abbreviates: peripheral retina, ganglion layer.
The mark [6] stands for this setting: treated animals, central retina (text says plexiform layer), range 3-6.

For the compound `CC(=O)Oc1ccccc1C(=O)O` [lysine acetylsalicylate], in the data set on retina, the “signs of medicament toxicity (de-structuring of retinal layers, absence of photoreceptor cells, histological alterations of optical nerve)” value is recorded as “No tissues were found to have signs that showed alterations suggesting toxicity”. In addition, the ICAM1 count is given as 15.0 (14.0-17.5) in data set [1] (setting [3]); 4.0 (3.0-5.0) in data set [1] (central retina, ganglion layer); 9.0 (7.0-11.0) in data set [1] (setting [4]); 2.0 (1.3-3.0) in data set [1] (setting [5]). For the same compound, the VESSELS count was 9.0 (7.0-11.0) in data set [2] (setting [3]); 5.0 (2.8-6.0) in data set [2] (central retina, ganglion layer); 6.0 (5.0-7.0) in data set [2] (setting [4]); 3.0 (1.8-4.0) in data set [2] (setting [5]). The “vessels per tissue section, average” value in data set [2] (setting [6]) was determined as 5. Also, the CD18 count in the data set on CD18 leucocyte marker (setting [3]) was 16.5 (14.0-18.0); in the data set with CD18 leucocyte marker (central retina, ganglion layer) it was 5.0 (3.0-6.0); in the data set with CD18 leucocyte marker (setting [4]), 8.0 (6.0-9.0); with CD18 leucocyte marker (setting [5]) it was 3.0 (2.0-4.0). Also, the “CD18 count, average” value in the data set on CD18 leucocyte marker (setting [6]) turned out to be 5. For the same compound, the “leucocytes per field relative to number expected from vessel count (regression model)” value with CD18 leucocyte marker (treated group, central retina, expected at least 10 leucocytes per field) was “half the leucocytes which would be expected”.
